# Results from patent publication US8318769B2, “Substituted sulfonamide compounds” (Gruenethal GmbH, priority 2008, dated 2012).
# How the values were obtained:
# [1] = target: T1, bradykinin 1 receptor (B1R) of the rat (Rattus norvegicus, UniProt P97583); test: FLIPR Ca2+ assay, B1R antagonism, rat; assay type: cell-based; conditions: CHO-K1, 10 μM test substance; CHO K1 cells with rat B1R gene (rB1R cells); Des-Arg9-bradykinin at EC80; % inhibition compared with the maximum achievable inhibition; read-out: B1R antagonism, rat [10 μM] % inhibition
# T1 construct: expressed in transfected cells
# T1 sequence (P97583 1-337): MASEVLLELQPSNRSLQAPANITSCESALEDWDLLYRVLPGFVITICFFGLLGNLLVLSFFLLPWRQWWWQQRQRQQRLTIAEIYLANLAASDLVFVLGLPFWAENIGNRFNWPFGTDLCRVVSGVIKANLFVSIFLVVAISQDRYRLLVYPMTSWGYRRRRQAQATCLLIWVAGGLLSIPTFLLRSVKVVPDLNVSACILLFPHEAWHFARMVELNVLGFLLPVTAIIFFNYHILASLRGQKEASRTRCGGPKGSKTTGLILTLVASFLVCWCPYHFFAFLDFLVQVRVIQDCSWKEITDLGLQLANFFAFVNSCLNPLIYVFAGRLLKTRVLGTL
# Description: (§1) The agonistic or antagonistic action of substances can be quantified on the bradykinin 1 receptor (B1R) of the human and rat species with ectopically expressing cell lines (CHO K1 cells) and with the aid of a Ca^2+-sensitive dyestuff (Fluo-4) in a fluorescent imaging plate reader (FLIPR). The figure in % activation is based on the Ca^2+ signal after addition of Lys-Des-Arg^9-bradykinin (0.5 nM) or Des-Arg^9-bradykinin (100 nM). Antagonists lead to a suppression of the Ca^2+ inflow after addition of the agonist. % inhibition compared with the maximum achievable inhibition is stated.
# (§2) The agonistic or antagonistic action of substances can be determined on the bradykinin 1 receptor (B1R) of the human and rat species with the following assay. In accordance with this assay, the Ca^2+ inflow through the channel is quantified with the aid of a Ca^2+-sensitive dyestuff (type Fluo-4, Molecular Probes Europe BV, Leiden, Holland) in a fluorescent imaging plate reader (FLIPR, Molecular Devices, Sunnyvale, USA).
# (§3) Chinese hamster ovary cells (CHO K1 cells) transfected stably with the human B1R gene (hB1R cells) or the B1R gene of the rat (rB1R cells) are used. For functional studies, these cells are plated out on black 96-well plates with a clear base (BD Biosciences, Heidelberg, Germany or Greiner, Frickenhausen, Germany) in a density of 20,000-35,000 cells/well. The cells are left overnight at 37° C. and 5% CO2 in culture medium (hB1R cells: Nutrient Mixture Ham's F12, Gibco Invitrogen GmbH, Karlsruhe, Germany or DMEM, Sigma-Aldrich, Taufkirchen, Germany; rB1R cells: D-MEM/F12, Gibco Invitrogen GmbH, Karlsruhe, Germany) with 10 vol. % FBS (foetal bovine serum, Gibco Invitrogen GmbH, Karlsruhe, Germany or PAN Biotech GmbH, Aidenbach, Germany).
# (§4) On the following day, the cells are loaded for 60 min at 37° C. with 2.13 μM Fluo-4 (Molecular Probes Europe BV, Leiden, Holland) in HBSS buffer (Hank's buffered saline solution, Gibco Invitrogen GmbH, Karlsruhe, Germany) with 2.5 mM probenecid (Sigma-Aldrich, Taufkirchen, Germany) and 10 mM HEPES (Sigma-Aldrich, Taufkirchen, Germany). The plates are then washed 2× with HBSS buffer, and HBSS buffer which additionally contains 0.1% BSA (bovine serum albumin; Sigma-Aldrich, Taufkirchen, Germany), 5.6 mM glucose and 0.05% gelatine (Merck KGaA, Darmstadt, Germany) is added. After a further incubation of 20 minutes at room temperature, the plates are inserted into the FLIPR for the Ca^2+ measurement.
# (§5) Alternatively, the plates are washed with buffer A (15 mM HEPES, 80 mM NaCl, 5 mM KCl, 1.2 mM CaCl2, 0.7 mM MgSO4, 2 g/l glucose, 2.5 mM probenecid), buffer A is added and the plates are loaded with 2.5 μM Fluo-4 and 0.025% Pluronic F127 (Sigma-Aldrich, Taufkirchen, Germany). Thereafter, the cells are washed 2× with buffer A and incubated for 30 minutes with buffer A, which additionally contains 0.05% BSA and 0.05% gelatine, at room temperature and thereafter inserted into the FLIPR for the Ca^2+ measurement.
# (§6) The Ca^2+-dependent fluorescence is measured here before and after addition of substances (λex=488 nm, λem=540 nm). Quantification is by measurement of the highest fluorescence intensity (FC, fluorescence counts) over time.
# (§7) The FLIPR protocol consists of 2 additions of substance. Test substances (10 μM) are first pipetted on to the cells and the Ca^2+ inflow is compared with the control (hB1R: Lys-Des-Arg^9-bradykinin >=50 nM; rB1R: Des-Arg^9-bradykinin 10 μM). This gives the figure in % activation based on the Ca^2+ signal after addition of Lys-Des-Arg^9-bradykinin (>=50 nM) or Des-Arg^9-bradykinin (10 μM).
# (§8) After incubation for 10-20 minutes, Lys-Des-Arg^9-bradykinin (hB1R) or Des-Arg^9-bradykinin (rB1R) in the concentration of the EC80 is applied and the inflow of Ca^2+ is likewise determined. Antagonists lead to a suppression of the Ca^2+ inflow. % inhibition compared with the maximum achievable inhibition is calculated. […]
# [2] = target: T2, human bradykinin 1 receptor (B1R) (Homo sapiens, UniProt P46663); test: FLIPR Ca2+ assay, B1R antagonism, human; assay type: cell-based; conditions: 10 μM test substance, CHO K1 cells with human B1R gene (hB1R cells), Lys-Des-Arg9-bradykinin at EC80, % inhibition compared with the maximum achievable inhibition; for inhibition at 10 µM: read-out: B1R antagonism, human [10 μM] % inhibition
# T2 construct: expressed in transfected cells
# T2 sequence (P46663 1-353): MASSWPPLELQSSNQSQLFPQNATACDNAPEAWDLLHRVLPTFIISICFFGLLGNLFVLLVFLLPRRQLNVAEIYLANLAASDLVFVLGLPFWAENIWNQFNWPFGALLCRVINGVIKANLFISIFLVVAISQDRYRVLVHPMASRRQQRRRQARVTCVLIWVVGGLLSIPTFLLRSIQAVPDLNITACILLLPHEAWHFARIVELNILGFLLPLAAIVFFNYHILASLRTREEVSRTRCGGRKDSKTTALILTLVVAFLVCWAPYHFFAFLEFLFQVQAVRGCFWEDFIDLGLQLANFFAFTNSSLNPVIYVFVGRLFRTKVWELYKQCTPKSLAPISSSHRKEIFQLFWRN
# Description: as §1, §2, §3, §4, §5, §6, §7, §8
Structure (SMILES),inhibition at 10 µM [1] [%],inhibition at 10 µM [2] [%],"B1R antagonism, human [10 μM] % inhibition [2] [%]"
"COc1cc(C)c(S(=O)(=O)N(CCOCC(=O)N2CCC(OCCN3CCCC3)(c3ccncc3)CC2)c2ccccc2)c(C)c1 [Example 100, 4-methoxy-2,6-dimethyl-N-[2-[2-oxo-2-[4-pyridin-4-yl-4-(2-pyrrolidin-1-yl-ethoxy)-piperidin-1-yl]-ethoxy]-ethyl]-N-phenyl-benzenesulfonic acid amide]",102,100,–
"COc1cc(C)c(S(=O)(=O)N2c3ccccc3OCC2COCC(=O)N2CCC(OCCN3CCCC3)(c3ccncc3)CC2)c(C)c1 (centres unmarked) [Example 108, 2-[[4-[(4-methoxy-2,6-dimethyl-phenyl)sulfonyl]-3,4-dihydro-2H-[1,4]benzoxazin-3-yl]-methoxy]-1-[4-pyridin-4-yl-4-(2-pyrrolidin-1-yl-ethoxy)-piperidin-1-yl]-ethanone]",103,100,–
"COc1cc(C)c(S(=O)(=O)N(C)CCOCC(=O)N2CCC(OCCCN3CCCCC3)(c3cccnc3)CC2)c(C)c1 [Example 18, 4-methoxy-N,2,6-trimethyl-N-(2-(2-oxo-2-(4-(3-(piperidin-1-yl)propoxy)-4-(pyridin-3-yl)piperidin-1-yl)ethoxy)ethyl)benzenesulfonamide]",103,102,–
"COc1cc(C)c(S(=O)(=O)N(CCOCC(=O)N2CCC(OCCN3CCCC3)(c3cccnc3)CC2)C(c2ccccc2)c2ccccc2)c(C)c1 [Example 6, N-benzhydryl-4-methoxy-2,6-dimethyl-N-(2-(2-oxo-2-(4-(pyridin-3-yl)-4-(2-(pyrrolidin-1-yl)ethoxy)piperidin-1-yl)ethoxy)ethyl)benzenesulfonamide]",100,98,–
"O=C(COCC1CCc2ccccc2N1S(=O)(=O)c1ccc(Cl)c(Cl)c1)N1CCC(OCCCN2CCCCC2)(c2cccnc2)CC1 (centres unmarked) [Example 19, 2-((1-(3,4-dichlorophenylsulfonyl)-1,2,3,4-tetrahydroquinolin-2-yl)methoxy)-1-(4-(3-(piperidin-1-yl)propoxy)-4-(pyridin-3-yl)piperidin-1-yl)ethanone]",94,103,–
"COc1cc(C)c(S(=O)(=O)N(C)CCOCC(=O)N2CCC(OCCN3CCCC3)(c3cccnc3)CC2)c(C)c1 [Example 21, 4-methoxy-N,2,6-trimethyl-N-(2-(2-oxo-2-(4-(pyridin-3-yl)-4-(2-(pyrrolidin-1-yl)ethoxy)piperidin-1-yl)ethoxy)ethyl)benzenesulfonamide]",100,98,–
"COc1cc(C)c(S(=O)(=O)N2CCCCC2CCCC(=O)N2CCC(OCCN3CCCC3)(c3cccnc3)CC2)c(C)c1 (centres unmarked) [Example 88, 4-[1-[(4-methoxy-2,6-dimethyl-phenyl)sulfonyl]-piperidin-2-yl]-1-[4-pyridin-3-yl-4-(2-pyrrolidin-1-yl-ethoxy)-piperidin-1-yl]-butan-1-one]",–,–,100
"COc1cc(C)c(S(=O)(=O)N2CCCCC2CCOCC(=O)N2CCC(OCCN3CCCC3)(c3cccc(F)c3)CC2)c(C)c1 (centres unmarked) [Example 125, 1-[4-(3-fluorophenyl)-4-(2-pyrrolidin-1-yl-ethoxy)-piperidin-1-yl]-2-[2-[1-[(4-methoxy-2,6-dimethyl-phenyl)sulfonyl]-piperidin-2-yl]-ethoxy]-ethanone]",99,–,–
"Cc1cccc(Cl)c1S(=O)(=O)N(CCOCC(=O)N1CCC(OCCN2CCCC2)(c2ccc(C(F)(F)F)cc2)CC1)C1CC1 [Example 71, 2-chloro-N-cyclopropyl-6-methyl-N-[2-[2-oxo-2-[4-(2-pyrrolidin-1-yl-ethoxy)-4-[4-(trifluoromethyl)-phenyl]-piperidin-1-yl]-ethoxy]-ethyl]-benzenesulfonic acid amide]",95,–,–
"O=C(CCCC1CCCCN1S(=O)(=O)c1ccc2ccccc2c1)N1CCC(OCCN2CCCC2)(c2cccc(F)c2)CC1 (centres unmarked) [Example 96, 1-[4-(3-fluorophenyl)-4-(2-pyrrolidin-1-yl-ethoxy)-piperidin-1-yl]-4-[1-(naphthalen-2-ylsulfonyl)-piperidin-2-yl]-butan-1-one]",79,–,–
"COc1cc(C)c(S(=O)(=O)N2CCCCC2CCOCC(=O)N2CCC(OCCN3CCCC3)(c3cccnc3)CC2)c(C)c1 (centres unmarked) [Example 123, 2-[2-[1-[(4-methoxy-2,6-dimethyl-phenyl)sulfonyl]-piperidin-2-yl]-ethoxy]-1-[4-pyridin-3-yl-4-(2-pyrrolidin-1-yl-ethoxy)-piperidin-1-yl]-ethanone]",96,–,–
"COc1cc(C)c(S(=O)(=O)N2CCCCC2COCC(=O)N2CCC(OCCN3CCCC3)(c3ccc(C(F)(F)F)cc3)CC2)c(C)c1 (centres unmarked) [Example 65, 2-[[1-[(4-methoxy-2,6-dimethyl-phenyl)sulfonyl]-piperidin-2-yl]-methoxy]-1-[4-(2-pyrrolidin-1-yl-ethoxy)-4-[4-(trifluoromethyl)-phenyl]-piperidin-1-yl]-ethanone]",96,–,–
"Cc1cccc(Cl)c1S(=O)(=O)N(CCOCC(=O)N1CCC(OCCN2CCCC2)(c2ccc(F)cc2)CC1)C1CC1 [Example 70, 2-chloro-N-cyclopropyl-N-[2-[2-[4-(4-fluorophenyl)-4-(2-pyrrolidin-1-yl-ethoxy)-piperidin-1-yl]-2-oxo-ethoxy]-ethyl]-6-methyl-benzenesulfonic acid amide]",98,–,–
"O=C(CCCC1CCCCN1S(=O)(=O)c1cccc2ccccc12)N1CCC(OCCN2CCCC2)(c2cccc(F)c2)CC1 (centres unmarked) [Example 93, 1-[4-(3-fluorophenyl)-4-(2-pyrrolidin-1-yl-ethoxy)-piperidin-1-yl]-4-[1-(naphthalen-1-ylsulfonyl)-piperidin-2-yl]-butan-1-one]",101,–,–
